In the assay the target is Angiotensin-converting enzyme (Homo sapiens) (UniProt P12821). Nature of the assay: Inhibition of recombinant human ACE at 100 uM using Mca-R-P-PG-F-S-A-F-K(Dnp)-OH as substrate measured every 2 mins for 8 mins by fluorescence assay.
Sequence of Angiotensin-converting enzyme (Homo sapiens) (P12821 whole entry): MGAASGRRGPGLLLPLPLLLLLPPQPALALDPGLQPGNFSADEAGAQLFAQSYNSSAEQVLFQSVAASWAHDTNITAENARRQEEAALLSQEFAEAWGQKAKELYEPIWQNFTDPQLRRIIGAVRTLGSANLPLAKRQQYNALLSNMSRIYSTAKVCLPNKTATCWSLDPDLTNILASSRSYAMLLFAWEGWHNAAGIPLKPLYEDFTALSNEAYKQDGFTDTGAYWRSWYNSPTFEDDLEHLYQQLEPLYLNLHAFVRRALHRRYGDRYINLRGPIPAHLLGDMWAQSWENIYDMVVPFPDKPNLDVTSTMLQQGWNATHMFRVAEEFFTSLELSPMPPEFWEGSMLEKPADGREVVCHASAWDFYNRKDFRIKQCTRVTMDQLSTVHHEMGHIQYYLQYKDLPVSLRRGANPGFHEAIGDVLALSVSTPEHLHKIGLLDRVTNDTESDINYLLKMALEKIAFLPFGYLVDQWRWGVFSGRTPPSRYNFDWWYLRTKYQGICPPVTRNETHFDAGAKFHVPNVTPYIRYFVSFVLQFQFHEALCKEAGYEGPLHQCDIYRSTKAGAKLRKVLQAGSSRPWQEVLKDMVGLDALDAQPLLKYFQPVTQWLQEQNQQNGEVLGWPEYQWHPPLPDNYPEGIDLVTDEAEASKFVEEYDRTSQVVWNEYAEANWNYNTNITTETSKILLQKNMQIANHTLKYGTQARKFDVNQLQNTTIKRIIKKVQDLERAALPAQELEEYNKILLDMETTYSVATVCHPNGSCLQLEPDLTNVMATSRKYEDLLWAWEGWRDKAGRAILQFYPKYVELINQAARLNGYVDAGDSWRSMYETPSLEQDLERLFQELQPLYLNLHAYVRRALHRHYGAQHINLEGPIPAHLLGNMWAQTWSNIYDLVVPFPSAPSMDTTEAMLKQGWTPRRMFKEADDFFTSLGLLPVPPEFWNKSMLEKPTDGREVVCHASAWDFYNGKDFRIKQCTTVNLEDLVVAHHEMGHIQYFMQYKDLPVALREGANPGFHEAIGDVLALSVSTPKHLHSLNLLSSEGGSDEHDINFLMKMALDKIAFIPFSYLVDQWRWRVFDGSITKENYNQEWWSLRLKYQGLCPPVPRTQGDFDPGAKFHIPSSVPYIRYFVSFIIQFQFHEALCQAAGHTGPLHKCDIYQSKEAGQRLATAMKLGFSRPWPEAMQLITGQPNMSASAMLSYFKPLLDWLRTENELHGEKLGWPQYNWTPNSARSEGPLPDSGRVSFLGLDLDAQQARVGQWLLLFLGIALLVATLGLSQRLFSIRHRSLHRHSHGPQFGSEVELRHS
As usually defined, the inhibition is the drop in the measured response relative to a control, in per cent. As for `COc1cc(O)ccc1/C=C/C(=O)c1ccc(O)cc1`, the inhibition turned out to be 72.5%.
Consider `COc1ccc(/C=C/c2cc(O)cc(O[C@@H]3O[C@H](CO)[C@@H](O)[C@H](O)[C@H]3O)c2)cc1O`, for which the inhibition worked out at 18.2%.
For the compound `O=C(O[C@@H]1Cc2c(O)cc(O)cc2O[C@@H]1c1cc(O)c(O)c(O)c1)c1cc(O)c(O)c(O)c1`, the inhibition turned out to be 82%.
Then `C[C@@H]1CC[C@H]2[C@@H](C)C(=O)O[C@@H]3O[C@@]4(C)CC[C@@H]1[C@]32OO4`, with 17.1%; and `C=CC(C)(C)c1cc(/C=C/C(=O)c2ccc(O)cc2)c(OC)cc1O`, with 111%.
Turning to `COc1cc(C=O)ccc1O`, the inhibition worked out at 41.5%.
Take `OC[C@H]1O[C@@H](Oc2cc(O)cc(/C=C/c3ccc(O)cc3)c2)[C@H](O)[C@@H](O)[C@@H]1O`: the inhibition is 8.9%.
`CC[C@H]1CN2CC[C@]3(C(=O)Nc4ccccc43)[C@@H]2C[C@@H]1/C(=C\OC)C(=O)OC`: the inhibition was 10%.
Then `C[C@]1(O)C[C@@H](O)[C@]2(O)C=CO[C@@H](O[C@@H]3O[C@H](CO)[C@@H](O)[C@H](O)[C@H]3O)[C@@H]21`, with 14.8%; and `C[C@@H]1O[C@@H](Oc2cc(O)c3c(=O)c(O)c(-c4ccc(O)cc4)oc3c2O)[C@H](O)[C@H](O)[C@H]1O`, with 17.2%.

For the origin of these results see ChEMBL document CHEMBL4052767, “Discovery of a potent angiotensin converting enzyme inhibitor via virtual screening” (Bioorg Med Chem Lett, 2017).
